Experiments:
[1] = tested on: AnxA2; assay: shRNA knockdown in HuH7 cells, AnxA2 Western blot; type: cell-based, human; conditions: HuH7, stable or transient transfection, vs control shRNA
Method: (§1) To silence human AnxA2, a 29mer pRS-shRNA was used: (sh3, […] (SEQ ID NO: 105)) (Origene). The control pRS-shGFP vector [shCtl] contained a non-effective 29mer shGFP cassette.
(§2) HepG2, HuH7, COS-1, BSC40 and HEK293 cell were grown in Dulbecco's modified Eagle's medium (DMEM) with 10% fetal bovine serum (FBS; Gibco), whereas CHO-K1 and CHO-K1 mutant Pgsd-677 cells that lack heparan sulfate proteoglycans^26 were grown in Ham's F12:DMEM (50:50) media with 10% FBS. Y1 mouse adrenal cells were grown in F12K medium with 15% horse serum and 2.5% FBS. All cells were maintained at 37° C. under 5% CO2. At 80-90% confluence, HuH7 and CHO-K1 cells were transiently transfected with Lipofectamine™ 2000 (Invitrogen), HEK293 cells were transfected with Effectene™ (Qiagen) and HepG2 cells were transfected with Fugene™ HD (Roche). […] For analysis of the various AnxA2 mutants in HEK293 cells, 24 h post-transfection, the cells were washed and then incubated for another 24 h in complete medium containing 50 μM of the proteasome inhibitor ALLN (Calbiochem). […]
(§3) Western blotting experiments were made on samples that were reduced in Laemmli buffer, heated and resolved on 8% glycine SDS-PAGE gels. […] Quantitation of band intensity was done with the ImageJ™ software version 1.37 (Wayne Rasband, National Institutes of Health, Bethesda, Md.).

[2] = tested on: LDLR; assay: shRNA knockdown in HuH7 cells, LDLR Western blot; type: cell-based, human; conditions: HuH7, stable or transient transfection, vs control shRNA
Method: as §1, §2, §3

[3] = tested on: LDLR; assay: LDLR Western blot of transfected HEK293 cells; type: cell-based, human; conditions: HEK293 cells (negligible PCSK9), with or without p11
Method: HepG2, HuH7, COS-1, BSC40 and HEK293 cell were grown in Dulbecco's modified Eagle's medium (DMEM) with 10% fetal bovine serum (FBS; Gibco), whereas CHO-K1 and CHO-K1 mutant Pgsd-677 cells that lack heparan sulfate proteoglycans^26 were grown in Ham's F12:DMEM (50:50) media with 10% FBS. Y1 mouse adrenal cells were grown in F12K medium with 15% horse serum and 2.5% FBS. All cells were maintained at 37° C. under 5% CO2. At 80-90% confluence, HuH7 and CHO-K1 cells were transiently transfected with Lipofectamine™ 2000 (Invitrogen), HEK293 cells were transfected with Effectene™ (Qiagen) and HepG2 cells were transfected with Fugene™ HD (Roche). […] For analysis of the various AnxA2 mutants in HEK293 cells, 24 h post-transfection, the cells were washed and then incubated for another 24 h in complete medium containing 50 μM of the proteasome inhibitor ALLN (Calbiochem). Stable transfectants of shRNA-AnxA2 were obtained in HuH7 cells following puromycin selection.
as §3, with “gels. Separated proteins were then electro-transferred onto nitrocellulose, and probed with HRP-conjugated anti-V5 or anti-HA tags or with primary antibodies.” for “gels.”

[4] = tested on: AnxA2; assay: 5-Azacytidine treatment of HepG2 cells, AnxA2 expression; type: cell-based, human
Text: as §3, with “gels. Separated proteins were then electro-transferred onto nitrocellulose, and probed with HRP-conjugated anti-V5 or anti-HA tags or with primary antibodies.” for “gels.”
(§4) For RNA preparation and cDNA synthesis cells were washed with PBS and incubated with Trizol reagent (Life Technologies). Total RNA was extracted and resuspended in ˜30 μL of water. Isolated RNA integrity was electrophoretically verified by ethidium bromide staining and optical density. Typically, 250 ng of total RNA were used for cDNA synthesis in a total volume of 20 μL using SuperScript™ II reverse transcriptase, 25 μg/mL oligo(dT)12-18, 0.5 mmol/L 2′-deoxynucleoside 5′-triphosphates, and 40 U of RNaseOUT™, all products from Life Technologies, and used according to the recommendations of the manufacturer. All primers were designed using Primer3™ software and optimized for each amplification. […] Each reaction was in a final volume of 25 μL using the QuantiTec SYBR Green™ PCR master mix from Qiagen, cDNA dilutions that gave threshold cycle (Ct) values for both amplifications, and primers for ribosomal-protein genes or the chosen target gene. […]

[5] = tested on: PCSK9; assay: 5-Azacytidine treatment of HepG2 cells, PCSK9 expression; type: cell-based, human
Text: as §3, with “gels. Separated proteins were then electro-transferred onto nitrocellulose, and probed with HRP-conjugated anti-V5 or anti-HA tags or with primary antibodies.” for “gels.”
as §4

[6] = tested on: LDLR; assay: 5-Azacytidine treatment of HepG2 cells, LDLR expression; type: cell-based, human
Text: as §3, with “gels. Separated proteins were then electro-transferred onto nitrocellulose, and probed with HRP-conjugated anti-V5 or anti-HA tags or with primary antibodies.” for “gels.”
as §4

[7] = tested on: HMG-CoA reductase; assay: 5-Azacytidine treatment of HepG2 cells, HMG-CoA reductase expression; type: cell-based, human; conditions: HepG2, qPCR
Method: For RNA preparation and cDNA synthesis cells were washed with PBS and incubated with Trizol reagent (Life Technologies). Total RNA was extracted and resuspended in ˜30 μL of water. Isolated RNA integrity was electrophoretically verified by ethidium bromide staining and optical density. Typically, 250 ng of total RNA were used for cDNA synthesis in a total volume of 20 μL using SuperScript™ II reverse transcriptase, 25 μg/mL oligo(dT)12-18, 0.5 mmol/L 2′-deoxynucleoside 5′-triphosphates, and 40 U of RNaseOUT™, all products from Life Technologies, and used according to the recommendations of the manufacturer. All primers were designed using Primer3™ software and optimized for each amplification. Each cDNA sample was submitted to 2 polymerase chain reaction (PCR) amplifications: one for normalizing ribosomal-protein gene (S14 for human and S16 for mouse cDNAs) and the other for the gene of interest, each in triplicate. Each reaction was in a final volume of 25 μL using the QuantiTec SYBR Green™ PCR master mix from Qiagen, cDNA dilutions that gave threshold cycle (Ct) values for both amplifications, and primers for ribosomal-protein genes or the chosen target gene. The Mx3500P™ system from Stratagene was used to perform and analyze the QPCR reactions, using S14 amplifications as normalizers and control samples as calibrators^25.35.

[8] = tested on: Annexin II; conditions: LNCaP cells; cited from earlier work

Row | Compound | knockdown of AnxA2 [1] | reduction of the LDLR levels [2] | levels of endogenous LDLR [3] | AnxA2 mRNA expression ([4]; HepG2, 10 μM, qPCR) [fold] | AnxA2 protein level ([4]; HepG2, Western blot) | secreted form of PCSK9 by western blot ([5]; HepG2, 24 or 48 hours of treatment) | mRNA level of PCSK9 ([5]; HepG2, qPCR) | LDLR expression at the protein level ([6]; HepG2, Western blot) | LDLR mRNA level ([6]; HepG2, qPCR) | HMG-CoA reductase mRNA level [7] | expression of Annexin II [8]
1 | AnxA2-shRNA: 29mer pRS-shRNA silencing human AnxA2, GCATCAGCACTGAAGTCAGCCTTATCTGG (SEQ ID NO: 105) | 60-70% | 40-70% | None of these treatments affected the levels of endogenous LDLR |  |  |  |  |  |  |  | 
2 | Nc1ncn([C@@H]2O[C@H](CO)[C@@H](O)[C@H]2O)c(=O)n1 [5-Azacytidine] |  |  |  | 3 | highly increased | barely detectable | drastically decreased | increased expression | increased | decreased | induced an increase of expression
